Measurements taken from US9073931B2, “Liver X receptor modulators” (Vitae Pharmaceuticals, Inc., priority 2012, dated 2015).
pEC50, pKi: −log10 of the molar value. Where two headings read alike, the source gives them in different places.

What was measured:
LBD of LXRα = LBD of LXRα (Homo sapiens (Human), UniProt Q13133); experiment: LXR luciferase transcriptional reporter gene assay, LXRα; format: cell-based; conditions: HEK293 cells, Gal4-LXRα LBD, 16 h, read-out: LXRα CELL EC50
LXR α LBD protein = LXR α LBD protein (Homo sapiens (Human), UniProt Q13133); experiment: LXR α radioligand binding assay (SPA, [3H]T0901317 competition)
LXR β LBD protein = LXR β LBD protein (Homo sapiens (Human), UniProt P55055); experiment: LXR β radioligand binding assay (SPA, [3H]T0901317 competition); conditions: competition with 15 nM [3H]T0901317, LXRβ LBD
LBD of LXRβ [1] = biological target: T1, LBD of LXRβ (Homo sapiens (Human), UniProt P55055); experiment: cell-based
LBD of LXRβ [2] = biological target: T1, LBD of LXRβ
[3] = competition with 15 nM [3H]T0901317, LXRα LBD

Chain of LXR β LBD protein (P55055 222-460): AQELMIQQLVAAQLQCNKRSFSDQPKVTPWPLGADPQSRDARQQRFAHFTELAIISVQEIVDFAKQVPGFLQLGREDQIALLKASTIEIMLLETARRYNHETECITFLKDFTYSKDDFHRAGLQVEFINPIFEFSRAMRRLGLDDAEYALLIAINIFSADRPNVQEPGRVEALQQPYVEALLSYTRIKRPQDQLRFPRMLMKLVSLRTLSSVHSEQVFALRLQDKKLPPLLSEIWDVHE
T1 sequence (P55055 222-460): as above
Chain of LXR α LBD protein (Q13133 209-447): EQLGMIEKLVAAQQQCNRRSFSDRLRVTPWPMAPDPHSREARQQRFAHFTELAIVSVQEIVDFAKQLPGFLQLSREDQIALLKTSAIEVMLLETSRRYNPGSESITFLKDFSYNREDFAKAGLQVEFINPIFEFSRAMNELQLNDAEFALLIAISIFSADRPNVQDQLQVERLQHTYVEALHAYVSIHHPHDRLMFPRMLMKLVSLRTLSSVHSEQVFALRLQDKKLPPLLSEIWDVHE
Chain of LBD of LXRα (Q13133 209-447): as above

| SMILES | pEC50 (LBD of LXRα) | pKi (LXR α LBD protein; [3]) | pKi (LXR β LBD protein) | pEC50 (LBD of LXRβ [1]) | pKi (LXR α LBD protein; read-out: LXRα BINDING Ki) | pEC50 (LBD of LXRβ [2]) |
| --- | --- | --- | --- | --- | --- | --- |
| CC(C)[C@H]1c2nc3cc(CO)c(S(C)(=O)=O)cc3n2CCN1c1ncc(C(=O)O)c(C(F)(F)F)n1 (single isomer, unassigned) [Compound E14b] | < 4.70 | – | < 5.60 | < 4.70 | < 5.48 | – |
| CCOC(=O)c1cnc(N2CCn3c(nc4ccc(S(C)(=O)=O)cc43)C2C(C)C)nc1C(F)(F)F (racemic) [Compound E3, Ethyl 2-(1-isopropyl-7-(methylsulfonyl)-3,4-dihydrobenzo[4,5]imidazo[1,2-a]pyrazin-2(1H)-yl)-4-(trifluoromethyl)pyrimidine-5-carboxylate] | 4.76 | < 5.48 | 5.94 | 5.34 | – | – |
| CC(C)[C@@H]1c2nc3cc(CO)c(S(C)(=O)=O)cc3n2CCN1c1ncc(C(=O)O)c(C(F)(F)F)n1 (single isomer, unassigned) [Compound E14a] | < 4.70 | – | < 5.60 | 5.12 | < 5.48 | – |
| CC(C)C1c2nc3ccc(S(C)(=O)=O)cc3n2CCN1c1ncc(C(N)=O)c(C(F)(F)F)n1 (racemic) [Compound E5, 2-(1-isopropyl-7-(methylsulfonyl)-3,4-dihydrobenzo[4,5]imidazo[1,2-a]pyrazin-2(1H)-yl)-4-(trifluoromethyl)pyrimidine-5-carboxamide] | < 4.70 | < 5.48 | < 5.60 | 5.57 | – | – |
| CC(O)c1cnc(N2CCn3c(cc4ccc(S(C)(=O)=O)cc43)C2C(C)C)nc1C(F)(F)F (single isomer, unassigned) [Compound E24a, 1-(2-(1-isopropyl-7-(methylsulfonyl)-3,4-dihydropyrazino[1,2-a]indol-2(1H)-yl)-4-(trifluoromethyl)pyrimidin-5-yl)ethanol] | – | – | 8.15 | – | – | 6.87 |

Continued, in another order:

| pEC50 (LBD of LXRα) | pKi (LXR α LBD protein; [3]) | pKi (LXR β LBD protein) | pEC50 (LBD of LXRβ [1]) | pKi (LXR α LBD protein; read-out: LXRα BINDING Ki) | SMILES | pEC50 (LBD of LXRβ [2]) |
| --- | --- | --- | --- | --- | --- | --- |
| < 4.70 | < 5.48 | < 5.60 | < 4.70 | – | Cc1nc(N2CCn3c(nc4cc(CO)c(S(C)(=O)=O)cc43)[C@H]2C(C)C)ncc1CO [Compound E19, (R)-(2-(8-(hydroxymethyl)-1-isopropyl-7-(methylsulfonyl)-3,4-dihydrobenzo[4,5]imidazo[1,2-a]pyrazin-2(1H)-yl)-4-methylpyrimidin-5-yl)methanol] | – |
| < 4.70 | – | – | – | < 5.48 | CNC(=O)c1cnc(N2CCn3c(nc4cc(CO)c(S(C)(=O)=O)cc43)[C@H]2C(C)C)nc1C(F)(F)F (single isomer, unassigned) [Compound E16a] | – |
| < 4.70 | – | – | – | < 5.48 | CNC(=O)c1cnc(N2CCn3c(nc4cc(CO)c(S(C)(=O)=O)cc43)[C@@H]2C(C)C)nc1C(F)(F)F (single isomer, unassigned) [Compound E16b] | – |
